What was measured:
Cytochrome P450 2B6 [1] = target: T1, Cytochrome P450 2B6 (Homo sapiens, UniProt P20813); experiment: Inhibition of human recombinant CYP2B6 in presence of reduced glutathione; format: ADME; settings: recombinant enzyme
T1 sequence (P20813 whole entry): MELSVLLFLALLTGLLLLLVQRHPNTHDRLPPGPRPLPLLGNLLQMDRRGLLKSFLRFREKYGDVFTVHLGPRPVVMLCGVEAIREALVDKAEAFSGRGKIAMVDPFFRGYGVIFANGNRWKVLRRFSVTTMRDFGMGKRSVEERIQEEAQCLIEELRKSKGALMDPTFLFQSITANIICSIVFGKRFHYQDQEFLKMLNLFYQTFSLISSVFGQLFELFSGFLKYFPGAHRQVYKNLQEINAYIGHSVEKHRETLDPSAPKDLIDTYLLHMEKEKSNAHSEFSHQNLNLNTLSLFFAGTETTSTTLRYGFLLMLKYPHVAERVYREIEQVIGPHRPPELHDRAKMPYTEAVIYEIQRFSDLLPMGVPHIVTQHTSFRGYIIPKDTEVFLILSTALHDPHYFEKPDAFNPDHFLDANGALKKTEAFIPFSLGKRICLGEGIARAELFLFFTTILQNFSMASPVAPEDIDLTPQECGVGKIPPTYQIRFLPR

Cytochrome P450 3A4 [2] = target: T2, Cytochrome P450 3A4 (Homo sapiens, UniProt P08684); experiment: Inhibition of human recombinant CYP3A4 in presence of reduced glutathione; format: ADME; settings: recombinant enzyme
CYP2B6 = target: T3, CYP2B6 (Homo sapiens, UniProt P20813); experiment: Inhibition of human recombinant CYP2B6 at 100 uM; format: ADME
T3 sequence (P20813 whole entry): T1 sequence (P20813 whole entry)

Cytochrome P450 2C9 [3] = target: T4, Cytochrome P450 2C9 (Homo sapiens, UniProt P11712); experiment: Inhibition of human recombinant CYP2C9 in presence of reduced glutathione; format: ADME; settings: recombinant enzyme
Cytochrome P450 2D6 [4] = target: T5, Cytochrome P450 2D6 (Homo sapiens, UniProt P10635); experiment: Inhibition of human recombinant CYP2D6 in presence of reduced glutathione; format: ADME; settings: recombinant enzyme
Cytochrome P450 2B6 [5] = target: T1, Cytochrome P450 2B6; experiment: Inhibition of human recombinant CYP2B6; format: ADME
Cytochrome P450 3A4 [6] = target: T2, Cytochrome P450 3A4; experiment: Inhibition of human recombinant CYP3A4; format: ADME
Cytochrome P450 1A2 = target: T6, Cytochrome P450 1A2 (Homo sapiens, UniProt P05177); experiment: Inhibition of human recombinant CYP1A2; settings: for log(1/IC50): human
T6 sequence (P05177 whole entry): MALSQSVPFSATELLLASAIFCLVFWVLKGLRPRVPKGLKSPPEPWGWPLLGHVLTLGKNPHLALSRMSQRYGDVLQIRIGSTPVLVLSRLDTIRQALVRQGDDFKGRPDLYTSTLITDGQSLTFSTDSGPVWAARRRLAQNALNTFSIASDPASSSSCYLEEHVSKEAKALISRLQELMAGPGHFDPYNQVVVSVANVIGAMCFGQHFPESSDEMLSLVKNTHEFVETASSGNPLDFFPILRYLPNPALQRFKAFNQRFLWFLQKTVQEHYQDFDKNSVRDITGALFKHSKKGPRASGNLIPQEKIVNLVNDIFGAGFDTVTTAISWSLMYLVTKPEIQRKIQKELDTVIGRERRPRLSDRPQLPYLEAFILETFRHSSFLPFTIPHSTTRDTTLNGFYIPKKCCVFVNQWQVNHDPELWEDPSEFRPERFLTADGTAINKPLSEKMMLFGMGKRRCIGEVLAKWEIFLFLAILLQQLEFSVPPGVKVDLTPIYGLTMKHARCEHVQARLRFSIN

Cytochrome P450 2C9 [7] = target: T4, Cytochrome P450 2C9; experiment: Inhibition of human recombinant CYP2C9; format: ADME
Cytochrome P450 2D6 [8] = target: T5, Cytochrome P450 2D6; experiment: Inhibition of human recombinant CYP2D6; format: ADME

T4 sequence (P11712 whole entry): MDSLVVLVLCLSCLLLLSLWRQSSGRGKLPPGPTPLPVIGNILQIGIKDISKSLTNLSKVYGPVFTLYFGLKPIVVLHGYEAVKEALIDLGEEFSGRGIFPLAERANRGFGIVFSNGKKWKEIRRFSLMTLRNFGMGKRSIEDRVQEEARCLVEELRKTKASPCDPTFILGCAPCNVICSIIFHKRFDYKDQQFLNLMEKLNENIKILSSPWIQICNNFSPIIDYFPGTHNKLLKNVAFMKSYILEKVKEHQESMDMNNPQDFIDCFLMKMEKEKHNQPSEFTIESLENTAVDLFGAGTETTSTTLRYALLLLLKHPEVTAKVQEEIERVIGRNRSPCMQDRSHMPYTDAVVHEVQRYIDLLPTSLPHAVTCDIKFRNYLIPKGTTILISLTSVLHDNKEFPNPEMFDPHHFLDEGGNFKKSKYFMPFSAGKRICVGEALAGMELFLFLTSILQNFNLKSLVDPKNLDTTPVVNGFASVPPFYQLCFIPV
T2 sequence (P08684 whole entry): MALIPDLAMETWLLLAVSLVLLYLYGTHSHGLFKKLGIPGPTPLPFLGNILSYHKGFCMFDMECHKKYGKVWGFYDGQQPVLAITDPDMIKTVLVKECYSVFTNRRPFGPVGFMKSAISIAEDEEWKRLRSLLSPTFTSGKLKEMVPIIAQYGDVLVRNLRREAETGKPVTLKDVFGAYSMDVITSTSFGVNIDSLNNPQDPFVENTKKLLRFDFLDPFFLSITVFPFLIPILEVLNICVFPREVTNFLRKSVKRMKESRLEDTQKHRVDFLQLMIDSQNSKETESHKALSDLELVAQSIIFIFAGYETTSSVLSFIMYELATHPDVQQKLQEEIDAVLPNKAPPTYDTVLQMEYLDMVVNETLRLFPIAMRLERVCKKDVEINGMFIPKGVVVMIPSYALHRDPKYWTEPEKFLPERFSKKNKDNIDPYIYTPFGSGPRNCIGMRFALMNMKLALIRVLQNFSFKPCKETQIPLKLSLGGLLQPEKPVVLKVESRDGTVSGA
T5 sequence (P10635 whole entry): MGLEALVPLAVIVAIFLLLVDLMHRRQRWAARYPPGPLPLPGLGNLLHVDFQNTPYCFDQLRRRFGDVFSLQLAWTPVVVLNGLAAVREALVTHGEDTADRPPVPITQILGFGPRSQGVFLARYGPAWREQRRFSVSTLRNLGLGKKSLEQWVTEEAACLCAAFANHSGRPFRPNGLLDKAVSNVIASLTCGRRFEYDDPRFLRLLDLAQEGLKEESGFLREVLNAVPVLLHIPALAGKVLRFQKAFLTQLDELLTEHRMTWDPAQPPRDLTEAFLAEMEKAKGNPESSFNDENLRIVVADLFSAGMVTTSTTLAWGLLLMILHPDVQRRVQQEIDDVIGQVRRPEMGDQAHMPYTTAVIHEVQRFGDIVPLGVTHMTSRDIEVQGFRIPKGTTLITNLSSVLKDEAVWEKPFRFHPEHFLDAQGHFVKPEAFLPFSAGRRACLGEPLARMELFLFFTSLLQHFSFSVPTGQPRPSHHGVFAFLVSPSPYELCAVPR

Compound	Activity (Cytochrome P450 2B6 [1])	Activity (Cytochrome P450 3A4 [2])	inhibition at 100 µM (CYP2B6) [%]	Activity (Cytochrome P450 2C9 [3])	Activity (Cytochrome P450 2D6 [4])	IC50 (Cytochrome P450 2B6 [5]) [µM]	IC50 (Cytochrome P450 3A4 [6]) [µM]	IC50 (Cytochrome P450 1A2) [µM]	log(1/IC50) (Cytochrome P450 1A2; recombinant enzyme) [mM]	IC50 (Cytochrome P450 2C9 [7]) [µM]	IC50 (Cytochrome P450 2D6 [8]) [µM]	log(1/IC50) (Cytochrome P450 1A2; recombinant CYP1A2)
COc1cc(/C=C/C(=O)/C=C/c2cc(OC)c(O)c(OC)c2)cc(OC)c1O	Not Active	Not Active	> 20	Not Active	Not Active	24.8	13.2	75.2	1.124	59	82.7	–
COc1cc(/C=C2\CC/C(=C\c3cc(OC)c(O)c(OC)c3)C2=O)cc(OC)c1O	Not Active	Not Active	> 20	Not Active	Not Active	70	38.3	–	–	–	–	–
Cc1cc(/C=C/C(=O)/C=C/c2cc(C)c(O)c(C)c2)cc(C)c1O	Not Active	Not Active	> 20	Not Active	Not Active	44.8	40.3	30.4	–	62.8	13.2	1.517
COc1cc(/C=C/C(=O)CC(=O)/C=C/c2ccc(O)c(OC)c2)ccc1O [CURCUMIN]	–	–	–	–	–	24.5	16.3	40	–	–	50.3	–
CC(C)(C)c1cc(/C=C2\CC/C(=C\c3cc(C(C)(C)C)c(O)c(C(C)(C)C)c3)C2=O)cc(C(C)(C)C)c1O	Not Active	Not Active	–	Not Active	Not Active	–	–	42.8	–	55	119	1.369

Reference: ChEMBL document CHEMBL1141678 (Eur J Med Chem, 2008)
